From ChEMBL document CHEMBL5465560, “Selectivity Literature for EUbOPEN Chemogenomic Library” (2024)

How the values were obtained:
[1] = molecular target: Tyrosine-protein kinase ABL1 (Homo sapiens, UniProt P00519); assay: Selectivity interaction (Kinase panel (DSF assay)) EUB0001559a ABL1
[2] = molecular target: Histone-lysine N-methyltransferase 2A (Homo sapiens) (UniProt Q03164); assay: Selectivity interaction (Methyltransferase screen (Scintillation proximity assays)) EUB0000255b MLL
[3] = molecular target: T1, Sphingosine kinase 2 (Homo sapiens) (UniProt Q9NRA0); assay: Selectivity interaction (Kinase panel (literature)) EUB0001199aCl SPHK2; details: at 1 µM
T1 sequence (whole entry): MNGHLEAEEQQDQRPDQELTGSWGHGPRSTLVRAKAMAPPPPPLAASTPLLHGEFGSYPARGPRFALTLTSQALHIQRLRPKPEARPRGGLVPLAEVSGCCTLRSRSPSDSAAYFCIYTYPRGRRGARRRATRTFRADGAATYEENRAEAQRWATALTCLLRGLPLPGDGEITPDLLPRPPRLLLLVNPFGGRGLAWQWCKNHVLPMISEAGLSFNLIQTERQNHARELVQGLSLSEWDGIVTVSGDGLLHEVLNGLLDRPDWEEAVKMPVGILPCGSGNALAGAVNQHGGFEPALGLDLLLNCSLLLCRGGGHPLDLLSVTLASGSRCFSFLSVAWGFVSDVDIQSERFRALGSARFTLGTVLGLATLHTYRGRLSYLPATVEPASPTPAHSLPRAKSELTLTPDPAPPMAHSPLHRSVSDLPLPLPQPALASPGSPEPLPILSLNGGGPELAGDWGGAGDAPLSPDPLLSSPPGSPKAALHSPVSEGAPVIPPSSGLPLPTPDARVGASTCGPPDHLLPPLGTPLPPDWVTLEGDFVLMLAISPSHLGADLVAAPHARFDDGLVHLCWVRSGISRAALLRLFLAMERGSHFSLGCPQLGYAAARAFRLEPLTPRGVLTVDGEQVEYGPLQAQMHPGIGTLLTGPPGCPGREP

[4] = molecular target: Ribosomal protein S6 kinase beta-1 (Homo sapiens, UniProt P23443); assay: Selectivity interaction (KinomeScan (DiscoverX)) EUB0000655a RPS6KB1; details: at 10 µM
[5] = molecular target: Casein kinase I isoform gamma-2 (Homo sapiens) (UniProt P78368); assay: Selectivity interaction (KinomeScan (DiscoverX)) EUB0001079a CSNK1G2; details: at 1 µM
[6] = molecular target: Homeodomain-interacting protein kinase 3 (Homo sapiens, UniProt Q9H422); assay: Selectivity interaction (KinomeScan (DiscoverX)) EUB0000607a HIPK3; details: at 10 µM
[7] = tested on: Mast/stem cell growth factor receptor Kit (Homo sapiens), P10721 [T670I]; assay: (§1) Selectivity interaction (SelectScreen profiling (Invitrogen)) EUB0000607a KIT; details: at 2 µM
[8] = molecular target: Mast/stem cell growth factor receptor Kit (Homo sapiens, UniProt P10721); assay: as §1; details: at 2 µM
[9] = molecular target: Mitogen-activated protein kinase 9 (Homo sapiens, UniProt P45984); assay: Selectivity interaction (KinomeScan (DiscoverX)) EUB0001619a MAPK9; details: at 1 µM
[10] = molecular target: Serine/threonine-protein kinase OSR1 (Homo sapiens) (UniProt O95747); assay: Selectivity interaction (KinomeScan (DiscoverX)) EUB0001619a OXSR1; details: at 1 µM
[11] = molecular target: Serine/threonine-protein kinase 25 (Homo sapiens) (UniProt O00506); details: at 10 µM
[12] = molecular target: Serine/threonine-protein kinase B-raf (Homo sapiens) (UniProt P15056); details: at 10 µM
[13] = molecular target: Dual specificity mitogen-activated protein kinase kinase 2 (Homo sapiens) (UniProt P36507); assay: Selectivity interaction (ProQinase) EUB0000171b MAP2K2
[14] = molecular target: KCNE1 (Homo sapiens, UniProt P15382); assay: Selectivity interaction (Panel of kinases, GPCRs, ion channels and transporters (enzymatic assay)) EUB0000223bCl KCNE1
[15] = molecular target: T2, Mitogen-activated protein kinase 15 (Homo sapiens) (UniProt Q8TD08); assay: Selectivity interaction (KinomeScan (DiscoverX)) EUB0000666a MAPK15; details: at 10 µM
T2 sequence (whole entry): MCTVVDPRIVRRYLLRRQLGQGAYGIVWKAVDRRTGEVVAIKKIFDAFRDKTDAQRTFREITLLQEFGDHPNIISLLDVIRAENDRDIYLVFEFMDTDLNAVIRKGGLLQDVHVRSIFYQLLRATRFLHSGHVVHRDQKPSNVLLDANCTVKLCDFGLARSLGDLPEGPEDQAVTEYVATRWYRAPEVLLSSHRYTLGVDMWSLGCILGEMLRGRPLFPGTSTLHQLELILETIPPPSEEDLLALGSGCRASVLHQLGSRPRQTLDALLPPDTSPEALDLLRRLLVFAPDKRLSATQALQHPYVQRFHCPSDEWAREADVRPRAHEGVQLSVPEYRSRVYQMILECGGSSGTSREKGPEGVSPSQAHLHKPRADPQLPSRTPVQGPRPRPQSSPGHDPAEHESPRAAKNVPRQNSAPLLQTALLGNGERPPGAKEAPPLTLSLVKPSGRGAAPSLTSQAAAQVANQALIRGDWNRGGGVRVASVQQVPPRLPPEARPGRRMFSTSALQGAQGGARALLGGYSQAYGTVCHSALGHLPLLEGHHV

[16] = molecular target: Activated CDC42 kinase 1 (Homo sapiens, UniProt Q07912); assay: Selectivity interaction (LanthaScreen Eu Kinase Binding Assay) EUB0001632a TNK2; details: at 10 µM
[17] = molecular target: Myosin light chain kinase, smooth muscle (Homo sapiens, UniProt Q15746); assay: Selectivity interaction (KinomeScan (DiscoverX)) EUB0000695a MYLK; details: at 100 nM

Chain of Histone-lysine N-methyltransferase 2A (Homo sapiens) (Q03164 1-2718 limits assumed): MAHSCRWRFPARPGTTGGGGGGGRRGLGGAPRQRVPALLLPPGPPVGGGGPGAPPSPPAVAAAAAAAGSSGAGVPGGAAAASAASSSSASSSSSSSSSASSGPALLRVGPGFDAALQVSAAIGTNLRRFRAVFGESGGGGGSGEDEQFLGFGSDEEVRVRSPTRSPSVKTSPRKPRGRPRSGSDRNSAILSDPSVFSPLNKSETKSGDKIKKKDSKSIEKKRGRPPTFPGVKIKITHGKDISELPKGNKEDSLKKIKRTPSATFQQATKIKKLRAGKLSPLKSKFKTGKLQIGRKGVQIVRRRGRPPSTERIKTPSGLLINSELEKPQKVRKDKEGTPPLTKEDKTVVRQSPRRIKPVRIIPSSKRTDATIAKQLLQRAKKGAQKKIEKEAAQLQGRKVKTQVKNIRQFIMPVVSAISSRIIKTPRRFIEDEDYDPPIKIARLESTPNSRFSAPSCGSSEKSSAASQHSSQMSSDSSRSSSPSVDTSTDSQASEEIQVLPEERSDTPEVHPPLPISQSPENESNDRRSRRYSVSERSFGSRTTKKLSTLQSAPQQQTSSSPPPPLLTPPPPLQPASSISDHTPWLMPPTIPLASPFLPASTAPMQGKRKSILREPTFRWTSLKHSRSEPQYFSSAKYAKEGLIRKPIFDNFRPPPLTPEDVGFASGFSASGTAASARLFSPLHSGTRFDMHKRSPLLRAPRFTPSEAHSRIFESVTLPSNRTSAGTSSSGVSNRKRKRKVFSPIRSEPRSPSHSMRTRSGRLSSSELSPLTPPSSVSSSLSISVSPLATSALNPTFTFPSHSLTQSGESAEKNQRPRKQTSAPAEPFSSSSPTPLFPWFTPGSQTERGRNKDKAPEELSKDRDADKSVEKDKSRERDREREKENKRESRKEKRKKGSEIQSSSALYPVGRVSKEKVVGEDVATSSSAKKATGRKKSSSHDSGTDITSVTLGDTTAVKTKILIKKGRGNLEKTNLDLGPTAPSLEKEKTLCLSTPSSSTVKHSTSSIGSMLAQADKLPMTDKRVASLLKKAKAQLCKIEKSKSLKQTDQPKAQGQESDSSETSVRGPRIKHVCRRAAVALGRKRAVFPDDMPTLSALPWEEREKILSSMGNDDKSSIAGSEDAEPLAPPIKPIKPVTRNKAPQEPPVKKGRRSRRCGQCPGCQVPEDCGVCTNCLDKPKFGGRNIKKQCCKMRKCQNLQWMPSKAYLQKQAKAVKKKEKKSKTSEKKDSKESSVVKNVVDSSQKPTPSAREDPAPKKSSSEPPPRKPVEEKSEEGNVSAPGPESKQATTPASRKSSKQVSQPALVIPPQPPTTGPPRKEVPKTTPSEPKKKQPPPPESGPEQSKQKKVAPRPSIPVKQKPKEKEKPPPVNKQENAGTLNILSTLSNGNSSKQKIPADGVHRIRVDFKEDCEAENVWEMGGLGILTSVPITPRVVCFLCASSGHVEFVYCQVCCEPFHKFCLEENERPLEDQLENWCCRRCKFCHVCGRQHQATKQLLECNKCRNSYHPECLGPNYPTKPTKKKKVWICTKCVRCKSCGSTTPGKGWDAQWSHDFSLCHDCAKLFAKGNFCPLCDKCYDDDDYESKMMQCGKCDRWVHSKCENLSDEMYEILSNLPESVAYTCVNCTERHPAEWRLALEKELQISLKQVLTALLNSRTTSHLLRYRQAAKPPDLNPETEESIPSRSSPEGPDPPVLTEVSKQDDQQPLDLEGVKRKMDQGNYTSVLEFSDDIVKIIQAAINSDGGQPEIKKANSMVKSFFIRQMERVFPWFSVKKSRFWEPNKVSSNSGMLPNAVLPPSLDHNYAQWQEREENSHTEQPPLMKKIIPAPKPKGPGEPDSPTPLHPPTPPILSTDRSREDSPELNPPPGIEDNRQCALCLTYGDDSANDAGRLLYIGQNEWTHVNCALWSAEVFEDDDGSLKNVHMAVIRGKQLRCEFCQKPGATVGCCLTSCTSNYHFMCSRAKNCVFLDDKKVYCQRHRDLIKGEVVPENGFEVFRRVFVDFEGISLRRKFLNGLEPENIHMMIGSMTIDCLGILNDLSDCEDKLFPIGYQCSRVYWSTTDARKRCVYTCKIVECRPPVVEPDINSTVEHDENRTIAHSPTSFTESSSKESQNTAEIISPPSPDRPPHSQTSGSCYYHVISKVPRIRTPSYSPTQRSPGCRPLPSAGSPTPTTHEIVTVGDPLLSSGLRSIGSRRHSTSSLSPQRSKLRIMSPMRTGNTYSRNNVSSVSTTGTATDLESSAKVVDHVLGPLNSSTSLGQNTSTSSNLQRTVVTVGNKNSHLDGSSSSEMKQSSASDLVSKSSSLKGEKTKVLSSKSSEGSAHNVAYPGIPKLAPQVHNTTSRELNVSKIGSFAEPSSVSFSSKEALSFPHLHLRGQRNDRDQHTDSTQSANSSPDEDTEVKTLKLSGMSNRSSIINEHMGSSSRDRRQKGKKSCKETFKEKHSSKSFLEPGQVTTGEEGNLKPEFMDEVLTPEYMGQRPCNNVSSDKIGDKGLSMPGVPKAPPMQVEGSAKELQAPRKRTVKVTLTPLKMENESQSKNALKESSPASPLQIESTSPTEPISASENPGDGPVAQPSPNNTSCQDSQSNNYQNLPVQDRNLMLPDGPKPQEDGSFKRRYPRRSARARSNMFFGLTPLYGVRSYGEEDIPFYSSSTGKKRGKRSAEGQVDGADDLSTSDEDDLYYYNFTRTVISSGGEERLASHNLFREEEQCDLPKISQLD
Chain of Histone-lysine N-methyltransferase 2A (Homo sapiens) (Q03164 2719-3969 limits assumed): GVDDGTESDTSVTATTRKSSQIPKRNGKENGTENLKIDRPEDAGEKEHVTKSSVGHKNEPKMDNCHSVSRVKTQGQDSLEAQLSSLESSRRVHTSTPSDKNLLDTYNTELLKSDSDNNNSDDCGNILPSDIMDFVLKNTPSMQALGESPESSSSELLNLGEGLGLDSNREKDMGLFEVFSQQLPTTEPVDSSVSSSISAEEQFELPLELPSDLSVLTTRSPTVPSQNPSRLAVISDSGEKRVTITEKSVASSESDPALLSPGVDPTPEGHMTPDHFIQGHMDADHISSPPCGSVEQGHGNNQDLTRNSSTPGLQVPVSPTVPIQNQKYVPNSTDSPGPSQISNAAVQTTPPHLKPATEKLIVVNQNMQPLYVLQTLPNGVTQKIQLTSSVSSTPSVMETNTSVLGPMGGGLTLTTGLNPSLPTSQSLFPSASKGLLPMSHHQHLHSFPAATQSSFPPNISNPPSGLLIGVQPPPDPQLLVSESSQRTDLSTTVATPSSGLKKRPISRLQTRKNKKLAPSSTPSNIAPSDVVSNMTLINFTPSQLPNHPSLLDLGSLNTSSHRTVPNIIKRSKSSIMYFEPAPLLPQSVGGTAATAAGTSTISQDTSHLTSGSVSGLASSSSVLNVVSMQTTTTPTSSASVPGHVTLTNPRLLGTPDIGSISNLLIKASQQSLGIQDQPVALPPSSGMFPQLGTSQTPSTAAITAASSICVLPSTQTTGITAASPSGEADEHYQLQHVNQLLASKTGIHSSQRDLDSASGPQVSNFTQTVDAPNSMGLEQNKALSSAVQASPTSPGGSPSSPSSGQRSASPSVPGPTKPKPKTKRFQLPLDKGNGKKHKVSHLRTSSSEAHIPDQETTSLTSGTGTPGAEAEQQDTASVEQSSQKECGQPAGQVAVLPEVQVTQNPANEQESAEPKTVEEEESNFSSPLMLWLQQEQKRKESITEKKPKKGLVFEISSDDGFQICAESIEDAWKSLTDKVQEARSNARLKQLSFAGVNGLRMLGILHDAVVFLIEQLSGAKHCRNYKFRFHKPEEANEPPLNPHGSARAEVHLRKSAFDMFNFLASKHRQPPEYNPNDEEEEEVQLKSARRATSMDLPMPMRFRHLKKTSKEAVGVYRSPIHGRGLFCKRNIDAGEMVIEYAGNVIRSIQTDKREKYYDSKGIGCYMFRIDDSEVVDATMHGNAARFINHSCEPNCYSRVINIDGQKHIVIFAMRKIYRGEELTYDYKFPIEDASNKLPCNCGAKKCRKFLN
Chain of Dual specificity mitogen-activated protein kinase kinase 2 (Homo sapiens) (P36507 whole entry): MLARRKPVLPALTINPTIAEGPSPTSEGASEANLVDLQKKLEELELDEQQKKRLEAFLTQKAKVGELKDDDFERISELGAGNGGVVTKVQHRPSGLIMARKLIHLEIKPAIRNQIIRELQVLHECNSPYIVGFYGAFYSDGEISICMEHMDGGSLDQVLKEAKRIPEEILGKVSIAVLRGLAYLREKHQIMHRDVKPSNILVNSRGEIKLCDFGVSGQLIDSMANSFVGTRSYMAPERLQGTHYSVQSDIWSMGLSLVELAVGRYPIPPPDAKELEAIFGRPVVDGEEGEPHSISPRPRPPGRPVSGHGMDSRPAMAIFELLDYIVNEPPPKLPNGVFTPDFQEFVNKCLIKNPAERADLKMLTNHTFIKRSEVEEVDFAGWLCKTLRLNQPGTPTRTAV
Chain of Casein kinase I isoform gamma-2 (Homo sapiens) (P78368 whole entry, looked up, canonical isoform): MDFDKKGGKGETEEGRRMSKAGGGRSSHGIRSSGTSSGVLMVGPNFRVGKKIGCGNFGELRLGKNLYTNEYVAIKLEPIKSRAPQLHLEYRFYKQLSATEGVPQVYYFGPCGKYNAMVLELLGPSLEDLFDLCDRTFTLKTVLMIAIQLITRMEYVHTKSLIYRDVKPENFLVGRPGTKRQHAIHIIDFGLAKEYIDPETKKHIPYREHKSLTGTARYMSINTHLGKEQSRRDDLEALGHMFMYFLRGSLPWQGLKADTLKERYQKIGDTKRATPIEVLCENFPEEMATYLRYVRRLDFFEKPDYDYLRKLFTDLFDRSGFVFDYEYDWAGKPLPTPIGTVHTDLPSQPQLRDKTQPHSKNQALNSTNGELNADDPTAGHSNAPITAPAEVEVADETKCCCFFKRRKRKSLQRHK

## CN(C(=O)c1cnn2cccnc12)c1cc2c(cc1N1CCOCC1)C(=O)N(C[C@@H](F)C(C)(C)O)C2
[1]
  dTM: 0.6 K

## COCCN1CCC(c2cc(CN(C)C(=O)c3cccc(Oc4ccccc4)c3)ccn2)CC1
[2]; at 1 µM
  % activity: > 95%
[2]; at 10 µM
  % activity: > 90%

## CN1Cc2nccc(-c3cn(C)nc3-c3ccc(F)cc3)c2C1=O
[3]
  % of inhibition: -7%

## CN(C)CCOc1ccc(-c2nc(-c3ccncc3)c(-c3ccc4c(c3)CC/C4=N\O)[nH]2)cc1
[4]
  % of control: 85%

## Nc1cnc(N2CCc3cc(S(=O)(=O)Nc4c(F)cc(Cl)cc4F)cc(N4CCCC4=O)c32)nc1 [TP-020n]
[5]
  % of control: 88%

## CNC(=O)Nc1ccc(-c2nc(N3CC4CCC(C3)O4)c3cnn(C4CCC5(CC4)OCCO5)c3n2)cc1
[6]
  % of control: 42%
[7]
  % of inhibition: 7%
[8]
  % of inhibition: 10%

## N#Cc1cccc(-c2c[nH]c3ncnc(N4CCOCC4)c23)c1
[9]
  % of control: 87%
[10]
  % of control: 90%

## Cc1cc([C@@H](C)Nc2ccccc2C(=O)O)c2nc(N3CCOCC3)cc(=O)n2c1 [AZD-6482]
[11]
  % of control: 76%
[12]
  % of control: 100%

## C=CC(=O)Nc1cccc(C(=O)Nc2ccc(Nc3cc(-c4[nH]c(SC)nc4C)ccn3)cc2)c1
[13]; at 1 µM
  % of control: 76%
[13]; at 5 µM
  % of control: 36%

## COc1cc(C(=O)N2CC[C@@H](O)[C@@H](N)C2)cc2nc(-c3cc4ccccc4n3CC3CC3)n(C)c12
[14]
  XC50: > 25.1 µM

## O=C(NOC[C@H](O)CO)c1ccc(F)c(F)c1Nc1ccc(I)cc1F
[15]
  % of control: 100%

## Cn1cc(-n2cnc3c(NCc4nc5cc(Cl)c(Cl)cc5[nH]4)nc(N4CCOCC4)nc32)cn1
[16]
  % of inhibition: -5.62%

## Cc1cc(F)c(C(=O)Nc2cccc(-c3nncn3C(C)C)n2)cc1-n1cnc(C2CC2)c1
[17]
  % of control: 100%
